From patent publication US20240058450A1, “BCL-XL Inhibitory Compounds Having Low Cell Permeability and Antibody Drug Conjugates Including the Same” (AbbVie Inc., priority 2014, published 2024)
Read-outs that look alike come from different tables or passages of the source.

Assays:
[1] = tested on: Molt-4 human acute lymphoblastic leukemia cells; experiment: Molt-4 cell viability assay (CellTiter-Glo, 48 hours, 10% HS); format: cell-based; conditions: Homo sapiens, MOLT-4, 48 h, non-permeabilized cells
In short: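 Cells were seeded at 12,500 per well in medium with 10% human serum and exposed to a 3-fold compound dilution series from 10 μM to 0.0005 μM. After 48 h, viable cells were quantified by CellTiter-Glo luminescence. Each concentration was run in duplicate on at least 3 occasions.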

Bcl-xL = Bcl-xL (Homo sapiens, UniProt Q07817); experiment: Time Resolved-Fluorescence Resonance Energy Transfer (TR-FRET) binding assay, competition with probe F-Bak
In short: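 TR-FRET binding assay run at room temperature for 2 h after mixing compound with Bcl-xL protein, F-Bak probe and Tb-labelled antibody. Test compounds diluted from a 2× 50 μM stock. Ki values derived via Wang's equation from 520/495 nm emission under 340 nm excitation, in the absence of serum or with 1% HS.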

[2] = tested on: permeabilized Bcl-xL dependent Molt-4 cells; experiment: Cytochrome C release in selectively (digitonin) permeabilized Molt-4 cells; format: cell-based, human; conditions: Homo sapiens, MOLT-4, 4 h, 4 h treatment, read-out: Molt-4 Permeabilized Cyt C Release
Source text: The permeabilization of the mitochondrial outer membrane to release proteins from the intermembrane space into the cytosol is a pivotal event in the process of apoptosis. Specifically, the release of cytochrome C triggers the formation of the apoptosome which, in turn, results in caspase activation and other events that will commit the cell to undergo programmed cell death (Goldstein el al., 2005, Cell Death and Differentiation 12:453). The process of mitochondrial outer membrane permeabilization (MOMP) is controlled by the Bcl-2 family members. It is promoted by the multidomain pro-apoptotic proteins Bax and Bak which, upon activation, oligomerize on the outer mitochondrial membrane and form pores to ultimately release cytochrome C. This action is antagonized by the antiapoptotic members, including Bcl-2 and Bcl-xL. Compounds that are capable of inhibiting Bcl-2 or Bcl-xL, for example, in cells that depend upon these proteins for survival, can cause activation of Bax and or Bak, MOMP, release of cytochrome C and the mentioned downstream steps in the apoptotic process. This process of cytochrome C release can be measured in cells via Western blot of both mitochrondrial and cytosolic fractions, and can be used a proxy measurement of apoptosis in cells.
As a means of detecting the ability of a Bcl-xL inhibitor with low cell-permeability to cause release of cytochrome C, the cells can be treated with an agent that causes selective pore formation in the plasma membrane, but not the mitochondrial membrane. Specifically, the cholesterol/phospholipid ratio is much higher in the plasma membrane than the mitochondrial membrane. […] This agent forms insoluble complexes with cholesterol leading to the segregation of cholesterol from its normal phospholipid binding sites. This action, in turn, leads to the formation of holes about 40-50 Å wide in the lipid bilayer. Once the plasma membrane is permeabilized, cytosolic components able to pass over digitonin-formed holes can be washed out, including the cytochrome C that was released from mitochondria to cytosol in the apoptotic cells ((Campos, 2006, Cytometry A 69(6):515-523)).
To determine if Bcl-xL inhibitors were inducing cell death through apoptosis, cytochrome C release was measured in Bcl-xL dependent Molt-4 cells following treatment Specifically, 1×10^6 cells were treated for 4 h (37° C., 5% CO2) with the test compounds in half-log dilutions starting at 3.0 μM and ending at 0.01 μM. Cells were then processed as described in Chen et al., 2011, Mol. Cancer Ther. 10:2340-2350 (the Bcl-2/Bcl-X(L)/Bcl-w inhibitor, navitoclax, enhances the activity of chemotherapeutic agents in vitro and in vivo.).

[3] = in the presence of 1% HS, read-out: Bcl-xL Binding Ki (nM, 1% HS)
[4] = without HS, read-out: Bcl-xL Binding Ki

Bcl-xL, sequence (Q07817 whole entry): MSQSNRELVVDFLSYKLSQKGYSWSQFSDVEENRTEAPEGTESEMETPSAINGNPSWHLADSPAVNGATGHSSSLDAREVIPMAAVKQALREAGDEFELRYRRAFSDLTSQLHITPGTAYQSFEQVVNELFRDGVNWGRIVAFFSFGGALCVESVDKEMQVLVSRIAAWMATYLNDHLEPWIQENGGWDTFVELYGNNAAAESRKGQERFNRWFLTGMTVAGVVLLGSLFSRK

SMILES | EC50 [1] [nM] | Ki (Bcl-xL; [3]) [nM] | Ki (Bcl-xL; [4]) [nM] | EC50 [2] [nM]
Cc1c(-c2ccc(N3CCc4cccc(C(=O)Nc5nc6cccnc6s5)c4C3)nc2C(=O)O)cnn1CC12CC3(C)CC(C)(C1)CC(OCCNCCS(=O)(=O)O)(C3)C2 [Example 1.22, 3-{1-[(3,5-dimethyl-7-{2-[(2-sulfoethyl)amino]ethoxy}tricyclo[3.3.1.1^3,7]dec-1-yl)methyl]-5-methyl-1H-pyrazol-4-yl}-6-[8-([1,3]thiazolo[5,4-b]pyridin-2-ylcarbamoyl)-3,4-dihydroisoquinolin-2 (1H)-yl]pyridine-2-carboxylic acid] | > 10000 | 7.11 | 0.006 | < 0.5
Cc1c(-c2ccc(N3CCc4c(OCCNCCS(=O)(=O)O)ccc(C(=O)Nc5nc6ccccc6s5)c4C3)nc2C(=O)O)cnn1CC12CC3(C)CC(C)(C1)CC(OCCN(C)CCS(=O)(=O)O)(C3)C2 [Example 1.47, 6-[8-(1,3-benzothiazol-2-ylcarbamoyl)-5-{2-[(2-sulfoethyl)amino]ethoxy}-3,4-dihydroisoquinolin-2 (1H)-yl]-3-{1-[(3,5-dimethyl-7-{2-[methyl(2-sulfoethyl)amino]ethoxy}tricyclo[3.3.1.1^3,7]dec-1-yl)methyl]-5-methyl-1H-pyrazol-4-yl}pyridine-2-carboxylic acid] | 197 | 0.0294 | 0.006 | < 0.5
Cc1c(-c2ccc(N3CCc4c(OCCN)ccc(C(=O)Nc5nc6ccccc6s5)c4C3)nc2C(=O)O)cnn1CC12CC3(C)CC(C)(C1)CC(OCCN(C)CCS(=O)(=O)O)(C3)C2 [Example 1.46, 6-[5-(2-aminoethoxy)-8-(1,3-benzothiazol-2-ylcarbamoyl)-3,4-dihydroisoquinolin-2 (1H)-yl]-3-{1-[(3,5-dimethyl-7-{2-[methyl(2-sulfoethyl)amino]ethoxy}tricyclo[3.3.1.1^3,7]dec-1-yl)methyl]-5-methyl-1H-pyrazol-4-yl}pyridine-2-carboxylic acid] | 68 | 0.00615 | < 0.001 | < 0.5
Cc1c(-c2ccc(N3CCc4cccc(C(=O)Nc5nc6ccccc6s5)c4C3)nc2C(=O)O)cnn1CC12CC3(C)CC(C)(C1)CC(OCCOCCNCCS(=O)(=O)O)(C3)C2 [Example 1.11, 6-[8-(1,3-benzothiazol-2-ylcarbamoyl)-3,4-dihydroisoquinolin-2 (1H)-yl]-3-(1-{[3,5-dimethyl-7-(2-{2-[(2-sulfoethyl)amino]ethoxy}ethoxy)tricyclo[3.3.1.1^3,7]dec-1-yl]methyl}-5-methyl-1H-pyrazol-4-yl}pyridine-2-carboxylic acid] | 63 | 0.17 | < 0.001 | < 0.5
Cc1c(-c2ccc(N3CCc4cccc(C(=O)Nc5nc6ccccc6s5)c4C3)nc2C(=O)O)cnn1CC12CC3(C)CC(C)(C1)CC(OCCNCCP(=O)(O)O)(C3)C2 [Example 1.12, 6-[8-(1,3-benzothiazol-2-ylcarbamoyl)-3,4-dihydroisoquinolin-2 (1H)-yl]-3-{1-[(3,5-dimethyl-7-{2-[(2-phosphonoethyl)amino]ethoxy}tricyclo[3.3.1.1^3,7]dec-1-yl)methyl]-5-methyl-1H-pyrazol-4-yl}pyridine-2-carboxylic acid] | 389 | 0.08 | < 0.001 | < 0.5
Cc1c(-c2ccc(N3CCc4cccc(C(=O)Nc5nc6ncccc6s5)c4C3)nc2C(=O)O)cnn1CC12CC3(C)CC(C)(C1)CC(OCCNCCCP(=O)(O)O)(C3)C2 [Example 1.39, 3-{1-[(3,5-dimethyl-7-{2-[(3-phosphonopropyl)amino]ethoxy}tricyclo[3.3.1.1^3,7]dec-1-yl)methyl]-5-methyl-1H-pyrazol-4-yl}-6-[8-([1,3]thiazolo[4,5-b]pyridin-2-ylcarbamoyl)-3,4-dihydroisoquinolin-2 (1H)-yl]pyridine-2-carboxylic acid] | 1590 | 0.174 | 0.018 | < 0.5
